This note sets out measurements from PubChem BioAssay AID342 (DTP/NCI, 2004).

SMILES strings stand for the structures. “And” between values parts separate entries of the source, which are not always exact repeats. Identical values can stand only once.

This test has as its system Swiss mice, Sarcoma 180 sc, mean tumor weight T/C. Description: NCI In Vivo Anticancer Drug Screen. Data for tumor model Sarcoma 180 (subcutaneous) in Swiss mice. The settings on record: endpoint: mean tumor weight, higher = larger tumour. In a few lines:
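T/C ratio: treated over vehicle-treated controls, measuring survival or tumor size in transplanted-tumor mice.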

The mark [1] stands for this setting: dose: 125.0 mg/kg/injection, schedule: Q01DX007 (ip), vehicle: carboxymethylcellulose (CMC).
Setting [2] is: dose: 250.0 mg/kg/injection, schedule: Q01DX007 (ip), vehicle: carboxymethylcellulose (CMC).

Take `CC1CCOS(=O)O1` (configuration not stated): the T/C – broadly, the ratio of treated to control – reads like this: (dose: 6.25 mg/kg/injection, schedule: Q01DX007 (ip), vehicle: olive oil, sesame oil, peanut oil) 67 % of control; (dose: 6.25 mg/kg/injection, schedule: Q01DX007 (ip), vehicle: propolene glycol) 62 % of control; (dose: 6.25 mg/kg/injection, schedule: Q01DX007 (oral), vehicle: olive oil, sesame oil, peanut oil) 81 % of control; (dose: 6.25 mg/kg/injection, schedule: Q01DX007 (sc), vehicle: olive oil, sesame oil, peanut oil) 81 % of control; (dose: 12.5 mg/kg/injection, schedule: Q01DX007 (ip), vehicle: olive oil, sesame oil, peanut oil) 85 % of control; (dose: 12.5 mg/kg/injection, schedule: Q01DX007 (ip), vehicle: propolene glycol) 55 % of control. Moreover, the T/C is 106 % of control (dose: 12.5 mg/kg/injection, schedule: Q01DX007 (oral), vehicle: olive oil, sesame oil, peanut oil); 74 % of control (dose: 12.5 mg/kg/injection, schedule: Q01DX007 (oral), vehicle: propolene glycol); 97 % of control (dose: 12.5 mg/kg/injection, schedule: Q01DX007 (sc), vehicle: olive oil, sesame oil, peanut oil); 75 % of control (dose: 25.0 mg/kg/injection, schedule: Q01DX007 (ip), vehicle: olive oil, sesame oil, peanut oil); 62 % of control (dose: 25.0 mg/kg/injection, schedule: Q01DX007 (ip), vehicle: propolene glycol); 79 % of control (dose: 25.0 mg/kg/injection, schedule: Q01DX007 (oral), vehicle: olive oil, sesame oil, peanut oil). The T/C runs as follows: (dose: 25.0 mg/kg/injection, schedule: Q01DX007 (oral), vehicle: propolene glycol) 80 % of control; (dose: 25.0 mg/kg/injection, schedule: Q01DX007 (sc), vehicle: olive oil, sesame oil, peanut oil) 65 % of control; (dose: 36.0 mg/kg/injection, schedule: Q01DX007 (ip), vehicle: carboxymethylcellulose (CMC)) 102 % of control; (dose: 50.0 mg/kg/injection, schedule: Q01DX007 (ip), vehicle: olive oil, sesame oil, peanut oil) 48 % of control; (dose: 50.0 mg/kg/injection, schedule: Q01DX007 (ip), vehicle: propolene glycol) 56 % of control; (dose: 50.0 mg/kg/injection, schedule: Q01DX007 (oral), vehicle: olive oil, sesame oil, peanut oil) 71 % of control. The T/C is, setting by setting: (dose: 50.0 mg/kg/injection, schedule: Q01DX007 (oral), vehicle: propolene glycol) 81 % of control; (dose: 50.0 mg/kg/injection, schedule: Q01DX007 (sc), vehicle: olive oil, sesame oil, peanut oil) 66 % of control; (dose: 54.0 mg/kg/injection, schedule: Q01DX007 (ip), vehicle: carboxymethylcellulose (CMC)) 84 % of control; (dose: 81.0 mg/kg/injection, schedule: Q01DX007 (ip), vehicle: carboxymethylcellulose (CMC)) 57 % of control.
With `COC(=O)C1C2CC3c4[nH]c5cc(OC)ccc5c4CCN3CC2CC(OC(=O)c2cc(OC)c(OC)c(OC)c2)C1OC` (configuration not stated), the T/C was 155 % of control (dose: 0.5 mg/kg/injection, schedule: Q01DX007 (ip), vehicle: saline); 85 % of control (dose: 1.0 mg/kg/injection, schedule: Q01DX007 (ip), vehicle: saline); 62 % of control (dose: 2.0 mg/kg/injection, schedule: Q01DX007 (ip), vehicle: saline); 83 % of control and 85 % of control (dose: 4.0 mg/kg/injection, schedule: Q01DX007 (ip), vehicle: saline); 115 % of control (dose: 8.0 mg/kg/injection, schedule: Q01DX007 (ip), vehicle: saline); 92 % of control (dose: 16.0 mg/kg/injection, schedule: Q01DX007 (ip), vehicle: saline). Moreover, the T/C (dose: 32.0 mg/kg/injection, schedule: Q01DX007 (ip), vehicle: saline) is 90 % of control.
As for `c1ccc2nc3c(nc2c1)[nH]c1ccccc13`, the T/C (dose: 62.5 mg/kg/injection, schedule: Q01DX007 (ip), vehicle: carboxymethylcellulose (CMC)) was 76 % of control; the T/C under setting [1] is 67 % of control; the T/C under setting [2] was 114 % of control.
For the compound `CN(C)C1=C(Cl)C(=O)C(=O)c2cccnc21`, the T/C by setting is: (dose: 6.25 mg/kg/injection, schedule: Q01DX007 (ip), vehicle: water) 89 % of control; (dose: 12.5 mg/kg/injection, schedule: Q01DX007 (ip), vehicle: water) 81 % of control.
Turning to `O=C1c2ccccc2-c2c3c(cc4ccnc1c24)OCO3`, the T/C reads like this: (dose: 45.0 mg/kg/injection, schedule: Q01DX007 (ip), vehicle: saline) 81 % of control; (dose: 65.0 mg/kg/injection, schedule: Q01DX007 (ip), vehicle: saline) 67 % of control; (dose: 100.0 mg/kg/injection, schedule: Q01DX007 (ip), vehicle: saline) 75 % of control; (dose: 150.0 mg/kg/injection, schedule: Q01DX007 (ip), vehicle: saline) 47 % of control.
For the compound `O=CCC(O)C(O)C(O)CO` (configuration not stated), the T/C runs as follows: under setting [1], 86 % of control; under setting [2], 75 % of control; (dose: 500.0 mg/kg/injection, schedule: Q01DX007 (ip), vehicle: carboxymethylcellulose (CMC)) 76 % of control; (dose: 1000.0 mg/kg/injection, schedule: Q01DX007 (ip), vehicle: carboxymethylcellulose (CMC)) 67 % of control.
Regarding `O=P(N1CCCC1)(N1CC1)N1CC1`, the T/C runs as follows: (dose: 1.0 mg/kg/injection, schedule: Q#A X014 (ip), vehicle: saline) 50 % of control and 54 % of control; (dose: 1.3 mg/kg/injection, schedule: Q#A X014 (ip), vehicle: carboxymethylcellulose (CMC)) 76 % of control; (dose: 1.5 mg/kg/injection, schedule: Q#A X014 (ip), vehicle: saline) 10 % of control and 22 % of control; (dose: 2.0 mg/kg/injection, schedule: Q#A X014 (ip), vehicle: carboxymethylcellulose (CMC)) 66 % of control; (dose: 2.0 mg/kg/injection, schedule: Q#A X014 (ip), vehicle: saline) 15 % of control; (dose: 3.0 mg/kg/injection, schedule: Q#A X014 (ip), vehicle: carboxymethylcellulose (CMC)) 46 % of control. The T/C (dose: 8.0 mg/kg/injection, schedule: Q01DX007 (ip), vehicle: carboxymethylcellulose (CMC)) was 23 % of control and the T/C (dose: 12.0 mg/kg/injection, schedule: Q01DX007 (ip), vehicle: carboxymethylcellulose (CMC)) was 11 % of control.
`O=[N+]([O-])c1ccc(C=Nc2ccc3c(c2)C(Br)c2ccccc2-3)cc1` (configuration not stated): the T/C by setting is: (dose: 55.0 mg/kg/injection, schedule: Q#A X014 (ip), vehicle: saline) 56 % of control; (dose: 83.0 mg/kg/injection, schedule: Q#A X014 (ip), vehicle: saline) 30 % of control and 37 % of control; (dose: 110.0 mg/kg/injection, schedule: Q01DX007 (ip), vehicle: saline) 88 % of control; (dose: 125.0 mg/kg/injection, schedule: Q#A X014 (ip), vehicle: saline) 28 % of control and 37 % of control; (dose: 166.0 mg/kg/injection, schedule: Q01DX007 (ip), vehicle: saline) 85 % of control; (dose: 187.5 mg/kg/injection, schedule: Q#A X014 (ip), vehicle: saline) 18 % of control. For the same compound, the T/C (dose: 250.0 mg/kg/injection, schedule: Q01DX007 (ip), vehicle: saline) was 94 % of control and the T/C (dose: 375.0 mg/kg/injection, schedule: Q01DX007 (ip), vehicle: saline) is 61 % of control.
Regarding `CC(N)C(=O)NC1(C(=O)O)CCCC1` (configuration not stated), the T/C (dose: 7.5 mg/kg/injection, schedule: Q#A X014 (ip), vehicle: carboxymethylcellulose (CMC)) is 75 % of control; the T/C (dose: 15.0 mg/kg/injection, schedule: Q#A X014 (ip), vehicle: carboxymethylcellulose (CMC)) was 56 % of control; the T/C (dose: 30.0 mg/kg/injection, schedule: Q#A X014 (ip), vehicle: carboxymethylcellulose (CMC)) is 62 % of control; the T/C (dose: 60.0 mg/kg/injection, schedule: Q#A X014 (ip), vehicle: carboxymethylcellulose (CMC)) is 46 % of control.
In the case of `CC(=O)Nc1c(Cl)c(Cl)c2c(c1Cl)Cc1cc(Cl)c(Cl)cc1-2`, the T/C runs as follows: (dose: 3.1 mg/kg/injection, schedule: Q01DX007 (ip), vehicle: carboxymethylcellulose (CMC)) 35 % of control; (dose: 6.2 mg/kg/injection, schedule: Q01DX007 (ip), vehicle: carboxymethylcellulose (CMC)) 52 % of control; (dose: 12.5 mg/kg/injection, schedule: Q01DX007 (ip), vehicle: carboxymethylcellulose (CMC)) 48 % of control and 54 % of control; (dose: 21.0 mg/kg/injection, schedule: Q01DX007 (ip), vehicle: other) 63 % of control; (dose: 32.0 mg/kg/injection, schedule: Q01DX007 (ip), vehicle: other) 39 % of control; (dose: 33.0 mg/kg/injection, schedule: Q01DX007 (ip), vehicle: other) 49 % of control. The T/C (dose: 48.0 mg/kg/injection, schedule: Q01DX007 (ip), vehicle: other) was 77 % of control; the T/C (dose: 49.0 mg/kg/injection, schedule: Q01DX007 (ip), vehicle: other) was 40 % of control; the T/C (dose: 73.0 mg/kg/injection, schedule: Q01DX007 (ip), vehicle: other) was 31 % of control; the T/C (dose: 250.0 mg/kg/injection, schedule: Q01DX007 (ip), vehicle: other) is 21 % of control and 43 % of control.
